For one test, the target named is DGKα (Homo sapiens (Human), UniProt P23743). Put plainly: Biochemical DGK IC50 assay, DGKα ADP-Glo assay. To be noted: 7.5 nM enzyme, 140 μM ATP, 80 μM DAG. In outline: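 Compounds at final 1.55˜10000 nM or 23.3˜150000 nM were tested against full-length DGKα. Substrate was lipid micelles of DAG and PS resuspended in 25 mM HEPES pH 7.0 with 0.5 mM EDTA and 160 mM octyl β-D-glucopyranoside. ADP formed was detected by ADP-Glo.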
For orientation: ADP-Glo turns the ADP formed in a reaction into a luminescent signal.

The target of another test is DGKζ (Homo sapiens (Human), UniProt Q13574). Put plainly: Biochemical DGK IC50 assay, DGKζ ADP-Glo assay. The following applies: 0.5 nM enzyme, 140 μM ATP, 80 μM DAG; read-out: DGKζ ADP-Glo assay IC50. In outline: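 ADP formation measured by ADP-Glo luminescence, with test compounds at final 1.55–10000 nM or 23.3–150000 nM. Enzyme: purified full-length human DGKζ from Sf9 insect cells; substrate: DAG/PS micelles in 25 mM HEPES pH 7.0, 0.5 mM EDTA, octyl glucoside.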
DGKζ, sequence (Q13574 other isoform, or with tags, fused parts or gaps): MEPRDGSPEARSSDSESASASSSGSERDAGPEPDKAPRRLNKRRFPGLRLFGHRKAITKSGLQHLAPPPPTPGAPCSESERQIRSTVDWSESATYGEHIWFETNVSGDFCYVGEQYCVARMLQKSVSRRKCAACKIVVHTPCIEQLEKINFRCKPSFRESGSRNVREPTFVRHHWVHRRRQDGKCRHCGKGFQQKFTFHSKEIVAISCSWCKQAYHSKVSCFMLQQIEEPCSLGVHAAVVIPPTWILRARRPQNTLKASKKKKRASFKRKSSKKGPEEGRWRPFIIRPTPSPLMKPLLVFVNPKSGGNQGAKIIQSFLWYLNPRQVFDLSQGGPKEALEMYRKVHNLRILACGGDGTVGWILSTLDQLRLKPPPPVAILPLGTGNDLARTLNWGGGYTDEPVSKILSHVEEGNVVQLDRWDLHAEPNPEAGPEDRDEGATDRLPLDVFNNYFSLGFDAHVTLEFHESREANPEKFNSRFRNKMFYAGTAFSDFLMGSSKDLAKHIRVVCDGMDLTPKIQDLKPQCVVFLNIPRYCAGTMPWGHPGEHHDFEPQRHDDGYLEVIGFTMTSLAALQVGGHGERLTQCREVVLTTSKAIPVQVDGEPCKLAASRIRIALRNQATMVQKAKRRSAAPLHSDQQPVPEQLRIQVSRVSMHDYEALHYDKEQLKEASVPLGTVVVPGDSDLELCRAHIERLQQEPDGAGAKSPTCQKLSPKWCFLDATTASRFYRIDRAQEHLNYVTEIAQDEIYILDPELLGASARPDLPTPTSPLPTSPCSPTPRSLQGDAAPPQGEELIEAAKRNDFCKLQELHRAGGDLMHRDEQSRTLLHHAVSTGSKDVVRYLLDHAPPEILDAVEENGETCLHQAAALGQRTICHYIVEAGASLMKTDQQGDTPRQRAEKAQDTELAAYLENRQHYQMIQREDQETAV

The values below come from patent US20240270751A1, “Pyrazolopyridinone Compounds” (BeiGene Ltd., priority 2021, published 2024).

A value given as a limit tells only on which side of the number the result lay.

A word on the IC50: it is the concentration at which inhibition is half-maximal.

DGKα, sequence (P23743 whole entry): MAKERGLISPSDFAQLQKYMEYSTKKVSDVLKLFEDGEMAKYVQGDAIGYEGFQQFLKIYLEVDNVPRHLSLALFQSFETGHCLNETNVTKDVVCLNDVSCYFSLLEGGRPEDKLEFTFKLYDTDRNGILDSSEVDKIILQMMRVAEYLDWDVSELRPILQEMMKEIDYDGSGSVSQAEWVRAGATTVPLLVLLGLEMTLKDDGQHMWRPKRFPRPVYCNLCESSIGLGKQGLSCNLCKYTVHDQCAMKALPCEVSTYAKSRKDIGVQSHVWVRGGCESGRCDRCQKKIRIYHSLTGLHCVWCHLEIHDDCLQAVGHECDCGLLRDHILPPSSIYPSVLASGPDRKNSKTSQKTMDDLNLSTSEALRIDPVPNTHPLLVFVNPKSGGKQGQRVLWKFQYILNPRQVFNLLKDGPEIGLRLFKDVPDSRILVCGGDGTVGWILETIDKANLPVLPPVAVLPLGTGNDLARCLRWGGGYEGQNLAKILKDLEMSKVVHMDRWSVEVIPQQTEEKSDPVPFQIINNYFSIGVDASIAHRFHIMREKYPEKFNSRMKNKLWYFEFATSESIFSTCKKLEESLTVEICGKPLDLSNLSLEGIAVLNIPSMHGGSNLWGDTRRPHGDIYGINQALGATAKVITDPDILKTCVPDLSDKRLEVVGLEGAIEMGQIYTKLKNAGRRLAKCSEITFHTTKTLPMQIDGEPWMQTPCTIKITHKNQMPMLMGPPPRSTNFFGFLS

With `CC[C@H]1CN(C(C)c2ccc(C)nn2)[C@H](CC)CN1c1cc(=O)n(C)c2cn(CC#N)nc12` (stereo partly drawn) [Compound A365], the IC50 against DGKα was 0.794 µM; on DGKζ, 4.71 µM.
In the same order, the values of `CC#CCn1cc2c(n1)c(N1C[C@@H](C)N(C(C)c3ccc4nccnc4c3)C[C@@H]1C)cc(=O)n2C` (mixture of isomers) [Compound A22, 2-(but-2-yn-1-yl)-7-((2S,5R)-2,5-dimethyl-4-(1-(quinoxalin-6-yl)ethyl)piperazin-1-yl)-4-methyl-2,4-dihydro-5H-pyrazolo[4,3-b]pyridin-5-one] are 0.2 µM and 0.094 µM.
In the same order, the values of `CC[C@H]1CN(C(C)c2nc3ccc(C(F)(F)F)cc3n2CC)[C@H](CC)CN1c1cc(=O)n(C)c2cn(CC#N)nc12` (single isomer, unassigned) [Compound A204b] are above 10 µM and 0.298 µM.
In the case of `CC#CCn1cc2c(n1)c(N1C[C@@H](CC)N(C(C)c3ccc(F)cc3C(F)(F)F)C[C@@H]1CC)cc(=O)n2C` (single isomer, unassigned) [Compound A238b], the IC50 was determined as 1.24 µM on DGKα and 0.256 µM on DGKζ.
The matching figures for `CC(c1ccc2ccc(C#N)cc2c1)N1C[C@H](C)N(c2cc(=O)n(C)c3cn(CC#N)nc23)C[C@H]1C` (stereo partly drawn) [Compound A307]: 2.47 µM and 1.75 µM.
In the same order, the values of `CC[C@H]1CN(C(C)c2ncccc2COC)[C@H](CC)CN1c1cc(=O)n(C)c2cn(CC#N)nc12` (stereo partly drawn) [Compound A93] are above 10 µM and 3.66 µM.
In the same order, the values of `C[C@@H]1CN(c2cc(=O)n(C)c3cn(CC#N)nc23)[C@@H](C)CN1Cc1ccc(F)cc1C(F)(F)F` [Compound A246] are 9.72 µM and 1.07 µM.
Consider `CC[C@@H]1CN(c2cc(=O)n(C)c3cn(CC#N)nc23)[C@@H](C)CN1C(C)c1ccc(C(F)(F)F)cc1F` (single isomer, unassigned) [Compound A202b], for which the IC50 on DGKα amounted to 1.28 µM; on DGKζ, 3.03 µM.
With `CC[C@@H]1CN(c2cc(=O)n(C)c3cn(CC#N)nc23)CCN1C(C)c1ccc2nccnc2c1` (single isomer, unassigned) [Compound A161a], the half-maximal inhibitory concentration (IC50) against DGKα and at DGKζ was above 10 µM in each case.
In the case of `CC[C@@H]1CN(c2cc(=O)n(C)c3cn(CC#N)nc23)[C@@H](CC)CN1C(=O)c1cc2ccccc2cn1` [Compound A372], the figures for the IC50 against DGKα and on DGKζ were 0.127 µM and 3.45 µM, respectively.
The matching figures for `CC[C@@H]1CN(c2cc(=O)n(C)c3cn(CC#N)nc23)[C@@H](CC)CN1Cc1ccc(OC(F)(F)F)cc1` [Compound A77]: 0.0092 µM and 0.6 µM.
For `CC#CCn1cc2c(n1)c(N1C[C@@H](C)N(C(C)c3ccc4c(c3)OC(F)(F)O4)C[C@@H]1C)cc(=O)n2C` (stereo partly drawn) [Compound A391], the IC50 at DGKα is 1.18 µM; on DGKζ it was 1.65 µM.
In the same order, the values of `CC[C@@H]1CN(c2c(Cl)c(=O)n(C)c3cn(CC#N)nc23)CCN1C(C)c1ccc2nccnc2c1` (single isomer, unassigned) [Compound A162b] are above 10 µM and 1.05 µM.
The matching figures for `CC[C@H]1CN(C(C)c2cccn(C)c2=O)[C@H](CC)CN1c1cc(=O)n(C)c2cn(CC#N)nc12` (stereo partly drawn) [Compound A104]: above 10 µM and above 10 µM.
The matching figures for `CC[C@H]1CN(C(C)c2ccc(F)cc2F)[C@H](CC)CN1c1cc(=O)n(C)c2cn(CC#N)nc12` (single isomer, unassigned) [Compound A132a]: 0.0089 µM and 0.0059 µM.
With `CC[C@H]1CN(C(C)c2ccc3ncn(C)c3c2)[C@H](CC)CN1c1cc(=O)n(C)c2cn(CC#N)nc12` (stereo partly drawn) [Compound A64], the IC50 was 2.8 µM against DGKα and 0.23 µM on DGKζ.
In the same order, the values of `Cc1cnc2ccc([C@H](C)N3C[C@H](C)N(c4nc(=O)n(C)c5cn(CC#N)nc45)C[C@H]3C)cc2n1` [Compound A319, 2-(7-((2S,5R)-2,5-dimethyl-4-((S)-1-(3-methylquinoxalin-6-yl)ethyl)piperazin-1-yl)-4-methyl-5-oxo-4,5-dihydro-2H-pyrazolo[4,3-d]pyrimidin-2-yl)acetonitrile] are 49.8 µM and 0.023 µM.
The matching figures for `CC(c1ccc(F)cc1C1(O)COC1)N1C[C@H](C)N(c2cc(=O)n(C)c3cn(CC#N)nc23)C[C@H]1C` (stereo partly drawn) [Compound A271, 2-(7-((2S,5R)-4-(1-(4-fluoro-2-(3-hydroxyoxetan-3-yl)phenyl)ethyl)-2,5-dimethylpiperazin-1-yl)-4-methyl-5-oxo-4,5-dihydro-2H-pyrazolo[4,3-b]pyridin-2-yl)acetonitrile]: above 10 µM and above 10 µM.
In the same order, the values of `CC[C@H]1CN(C(C)c2ccc(C(F)(F)F)cc2)[C@H](CC)CN1c1cc(=O)n(C)c2cn(CC#N)nc12` (mixture of isomers) [Compound A103, 2-(7-((2S,5R)-2,5-diethyl-4-(1-(4-(trifluoromethyl)phenyl)ethyl)piperazin-1-yl)-4-methyl-5-oxo-4,5-dihydro-2H-pyrazolo[4,3-b]pyridin-2-yl)acetonitrile] are 0.208 µM and 0.107 µM.
With `COCCn1cc2c(n1)c(N1C[C@@H](C)N(C(C)c3ccc4nccnc4c3)C[C@@H]1C)cc(=O)n2C` (stereo partly drawn) [Compound A5], the 50% inhibitory concentration (IC50) was 21 µM at DGKα and 3.5 µM on DGKζ.
The matching figures for `CC[C@H]1CN(C(C)c2ccc(OC(C)C)nc2)[C@H](CC)CN1c1cc(=O)n(C)c2cn(CC#N)nc12` (stereo partly drawn) [Compound A81]: 0.461 µM and 0.06 µM.
As for `CC[C@H]1CN(C(C)c2ncc(F)cc2F)[C@H](CC)CN1c1cc(=O)n(C)c2cn(CC#N)nc12` (stereo partly drawn) [Compound A148], the 50% inhibitory concentration (IC50) against DGKα is 0.034 µM; on DGKζ it was 0.19 µM.
The matching figures for `Cc1nc2cccc(C(C)N3C[C@H](C)N(c4cc(=O)n(C)c5cn(CC#N)nc45)C[C@H]3C)c2o1` (stereo partly drawn) [Compound A42]: above 10 µM and 3.39 µM.
For `CC#CCn1cc2c(n1)c(N1C[C@@H](CC)N(C(C)c3ccc4cccnc4c3)C[C@@H]1C)cc(=O)n2C` (stereo partly drawn) [Compound A395], the figures for the half-inhibitory concentration (IC50) against DGKα and at DGKζ were 0.222 µM and 0.272 µM, respectively.
With `CC[C@H]1CN(C(C)c2ccc(C(F)(F)F)cc2)[C@H](CC)CN1c1cc(=O)n(C)c2cn(CC#N)nc12` (single isomer, unassigned) [Compound A103a], the IC50 on DGKα is 0.403 µM; at DGKζ, 0.241 µM.
With `CC[C@@H]1CN(c2cc(=O)n(C)c3cn(CC#N)nc23)[C@@H](COC)CN1C(C)c1ccc2nccnc2c1` (stereo partly drawn) [Compound A225, 2-(7-((2R,5R)-5-ethyl-2-(methoxymethyl)-4-(1-(quinoxalin-6-yl)ethyl)piperazin-1-yl)-4-methyl-5-oxo-4,5-dihydro-2H-pyrazolo[4,3-b]pyridin-2-yl)acetonitrile], the IC50 against DGKα turned out to be 7.45 µM; at DGKζ it was 0.099 µM.
The matching figures for `COC(=O)Cn1cc2c(n1)c(N1C[C@@H](C)N(C(C)c3ccc4nccnc4c3)C[C@@H]1C)cc(=O)n2C` (stereo partly drawn) [Compound A7]: above 10 µM and 1.03 µM.
In the same order, the values of `Cc1nc2c(C(C)N3C[C@H](C)N(c4cc(=O)n(C)c5cn(CC#N)nc45)C[C@H]3C)cccc2o1` (stereo partly drawn) [Compound A45] are above 10 µM and 1.42 µM.
The matching figures for `C[C@H](c1ccc2nccnc2c1)N1CC2CCC1CN2c1cc(=O)n(C)c2cn(CC#N)nc12` (stereo partly drawn) [Compound A125b]: above 10 µM and 5.27 µM.
As to `CC[C@H]1CN(C(C)c2ccc(CN3CCOC(C)(C)C3)cc2)[C@H](CC)CN1c1cc(=O)n(C)c2cn(CC#N)nc12` (stereo partly drawn) [Compound A342], the IC50 came to 0.229 µM against DGKα and 0.353 µM at DGKζ.
With `CC[C@H]1CN(C(C)c2ccc3nccnc3c2)[C@H](C)CN1c1cc(=O)n(C)c2cn(CC#N)nc12` (single isomer, unassigned) [Compound A98b], the IC50 against DGKα was above 10 µM; on DGKζ it was 1.76 µM.
The matching figures for `CC[C@H]1CN(C(C)c2nc3cccc(C(F)(F)F)c3n2CC)[C@H](CC)CN1c1cc(=O)n(C)c2cn(CC#N)nc12` (single isomer, unassigned) [Compound A230b]: 6.2 µM and 0.494 µM.
In the same order, the values of `CC[C@H]1CN(C(C)c2ccc(F)cc2C2CC2)[C@H](CC)CN1c1cc(=O)n(C)c2cn(CC#N)nc12` (stereo partly drawn) [Compound A175] are above 10 µM and 0.305 µM.
With `CC[C@H]1CN(C(C)c2cnc3ccccc3n2)[C@H](CC)CN1c1cc(=O)n(C)c2cn(CC#N)nc12` (single isomer, unassigned) [Compound A155b], the IC50 against DGKα was 0.032 µM; at DGKζ it was 0.0076 µM.
In the same order, the values of `CC[C@H]1CN(C(C)c2cnc(OC(C)C)cc2F)[C@H](CC)CN1c1cc(=O)n(C)c2cn(CC#N)nc12` (stereo partly drawn) [Compound A358] are 5.83 µM and 0.373 µM.
The matching figures for `CC(c1ccc2nccnc2c1)N1C[C@H](C)N(c2cc(=O)[nH]c3cn(CC#N)nc23)C[C@H]1C` (single isomer, unassigned) [Compound A260, 2-(7-((2S,5R)-2,5-dimethyl-4-((R)-1-(quinoxalin-6-yl)ethyl)piperazin-1-yl)-5-oxo-4,5-dihydro-2H-pyrazolo[4,3-b]pyridin-2-yl)acetonitrile, or 2-(7-((2S,5R)-2,5-dimethyl-4-((S)-1-(quinoxalin-6-yl)ethyl)piperazin-1-yl)-5-oxo-4,5-dihydro-2H-pyrazolo[4,3-b]pyridin-2-yl)acetonitrile]: above 10 µM and 0.394 µM.
